From PMC5413848, “Optimization of intestinal microsomal preparation in the rat: A systematic approach to assess the influence of various methodologies on metabolic activity and scaling factors” (Biopharmaceutics & Drug Disposition, 2017)
Several values for one entry are separate records, joined by “and”; a condition that tells them apart may be missing. Equal values may be shown once.

Columns and labels:
[1] = design: method as in PMID 11587497; conditions: cited from earlier work
[2] = design: method as in PMID 11587497; conditions: Wistar rat intestinal microsomes prepared by elution, 30 cm intestine; cited from earlier work
[3] = CYP activity: testosterone metabolite formation in rat intestinal microsomes; type: in vitro ADME; conditions: for Maximal rate of testosterone metabolite formation: 100 μM testosterone, 1 mg/ml
Procedure: The CYP enzyme activities were determined for the in‐house and commercial intestinal microsomes using the probe substrate testosterone. Testosterone metabolites and the respective rat cyp isoforms responsible for their formation are shown in Supplemental material Table 1 33. […] The reactions were initiated by the addition of testosterone. Samples were taken at 5, 15, 30 and 60 min. […] Following optimization of the bioanalytical methodology to improve reproducibility and sensitivity based on increasing the efficiency of protein precipitation 37, the samples were quenched 1:2 (sample: quench) in ice cold acetonitrile containing internal standard (1 μM 11‐β OH TEST) and stored overnight at −20°C. The following day, the plates were spun at 3000 rpm for 15 min, and 50 μl supernatant was diluted in 200 μl UPH2O. Samples were quantified using a Waters Acquity UPLC system with a PDA coupled to a G2 Q‐ToF MS (Waters, Milford, MA, USA), and a Acquity UPLC BEH C18 column, 130 Å, 1.7 μm, 2.1 mm × 100 mm and Acquity UPLC column with an in‐Line Filter Kit made up of the same phase (Waters). The sample (25 μl) was detected using an electrospray interface in positive mode, and source and desolvation temperatures, and desolvation and cone gas flows were 120°C and 400°C, and 800 l/h and 20 l/h, respectively. The cone voltage was 30 V. The elution times and LLOQ of testosterone and its hydroxy metabolites are shown in Supplemental material Table 2. The quantification of testosterone metabolites listed in Supplemental material Table 1 was made using standard curves (5–5000 pmol/ml) prepared from no cofactor added microsomes and prepared identically to the assay samples.

[4] = Substrate depletion in commercial Han Wistar rat intestinal microsomes, combined or individual CYP and UGT cofactors; conditions: for microsomal CLint at 1 μM: male, Han Wistar, rat, microsomes, pH 7.4, CL int,u, Commercial Han Wistar pool, 1 mg/ml, 1 μM compound
Procedure: (§1) Microsomes prepared previously via the optimized method (preparation method 8) were combined to form pool 1 (n = 9 rats). A second set of three preparations was combined to form pool 2 (n = 9 rats). Intestinal microsomes were also prepared from intestinal tissue flash‐frozen in tubes on arrival in the laboratory and kept at −80°C until thawing on ice on the morning of preparation, (n = 3 occasions of n = 3 samples). In addition, for comparative purposes microsomes were also prepared from scraped intestinal tissues. Microsomes were prepared after cutting along the length of intestine and gently scraping the intestinal epithelial with a glass microscope slide (n = 1 occasion, n = 3 samples). Commercially available pooled intestinal microsomes were also used as a comparator to those produced in‐house. […] The microsomes were stored at −80°C prior to experiments.
(§2) Midazolam and 7‐hydroxycoumarin were both incubated at 1 mg/ml and 0.5 mg/ml. The microsomes were incubated on ice with alamethacin (50 μg/mg) for 15 min. […] The samples were quenched with ice cold acetonitrile (3:1 quench to sample) containing the internal standard (AZ1). The total incubation time was 40 min. Quenched samples were stored overnight at −20°C. The following day, the samples were diluted with 200 μl UPH2O, and spun at 3000 rpm (Sorvall legend RT centrifuge) for 15 min, and 200 μl of supernatant taken for analysis.

[5] = Nonspecific protein binding in rat intestinal microsomes (96-well micro-equilibrium dialysis); conditions: rat intestinal microsomes 1 mg/ml, compound 1 μM
Procedure: Nonspecific protein binding was determined in microsomes (1 mg/ml) using high throughput 96‐well micro‐equilibrium dialysis methodology (HTDialysis, LLC, Gales Ferry, CT, USA). These experiments used dialysis membrane strips with 12–14 kDa molecular mass cut‐off (HTDialysis). The microsomes were constituted in 0.1 M phosphate buffer (pH 7.4). The final concentrations of the test compounds was 1 μM. Microsomes containing the test compound were aliquoted into donor wells in triplicate, and buffer placed in the acceptor wells. The plate was incubated at 37°C and left to equilibrate on a plate shaker (450 rpm) for 4 h. Samples from both the acceptor and donor sides of the membrane were then transferred to 96‐well plates and quenched in acetonitrile containing internal standard (AZ1). The same sample preparation and LC–MS/MS methodology was used as described for the microsomal incubations. Compound MS transitions and retention times are reported in Supplemental material Table 3. Fuinc was calculated as the ratio of acceptor to donor both normalized for internal standard as described previously 41. Correction for protein binding for depletion experiments undertaken at 0.5 mg/ml were made using Equation (4).
(4) fumic,2=1/[P]mic,2/Pmic,1×1−fumic,1/fumic,1+1
where mic,1 denotes 1 mg/ml and mic,2 is 0.5 mg/ml.

[6] = previous study, corrected for fu inc of this study; cited from earlier work
[7] = In vitro-in vivo extrapolation of rat intestinal unbound intrinsic clearance (CL int,u,gut); type: in vitro ADME
Description: The CL int,u values were scaled to give CL int,u,gut using scaling factors for the corresponding microsomal pool (Eq. (5)). The use of scalars from the mean of both pools was also investigated, and was also used for scaling of commercial microsome CL int,u data.
(5) CLint,u,G=CLuint⋅MPPGI⋅Intestine Segment Weight

[8] = Substrate depletion in in-house rat intestinal microsome pools 1 and 2, combined CYP and UGT cofactors; conditions: Han-Wistar, rat, microsomes, pH 7.4, CL int,u, in-house combined cofactors, 1 μM compound
Procedure: as §1
The microsomes prepared from the final optimized preparation method (method 8) were measured for CYP content on the day of preparation prior to storage. These microsomes (n = 3 samples prepared on n = 3 separate occasions) were subsequently thawed on ice and pooled for pool 1. The pool 1 microsomes were then assayed for testosterone and 4‐NP metabolite formation. Additional intestinal microsomes were created using the identical methodology with the same number of rat intestinal samples (n = 3 samples prepared on n = 3 occasions) and assayed for testosterone and 4‐NP metabolite formation as well as for CYP content on the day of preparation before storage. The microsomes from this second set of preparations were then thawed and pooled to form pool 2.
as §2

[9] = Pool 1, FT (1 freeze-thaw cycle)

Row | Structure (SMILES) | Maximal rate of testosterone metabolite formation ([3]; Commercial HW, FT) [pmol/min/mg] | Maximal rate of testosterone metabolite formation ([3]; Commercial SD, FT) [pmol/min/mg] | Maximal rate of testosterone metabolite formation [3, 9] [pmol/min/mg] | Maximal rate of testosterone metabolite formation ([3]; Pool 2, FT) | Maximal rate of testosterone metabolite formation ([3]; Pool 2, Fresh) | Maximal rate of testosterone metabolite formation ([3]; Scraping, FT) | Fold higher mean metabolite formation in pool 2 (vs pool 1) [3] [fold] | further results
1 | O=[N+]([O-])c1ccc(O)cc1 [4‐NP, 4‐nitrophenol] |  |  |  |  |  |  |  | 4-NP glucuronidation, previously reported [1]: 7 ± 0.81 nmol/min/mg
2 | C[C@]12CC[C@H]3[C@@H](C[C@@H](O)C4=CC(=O)CC[C@@]43C)[C@@H]1CC[C@@H]2O [6β‐OH TEST] | 190 ± 53.5 | 167.2 ± 43.7 | 85.3 ± 32.5 | 187.5 pmol/min/mg and 187.5 ± 77.8 pmol/min/mg | 113.3 pmol/min/mg and 113.3 ± 30.9 pmol/min/mg | 66.1 pmol/min/mg and 66.1 ± 4.8 pmol/min/mg | 2.2 | 6β-OH TEST formation, previously reported [2]: 289 ± 5 pmol/min/mg
3 | C[C@]12CC[C@H]3[C@@H](CCC4=CC(=O)CC[C@@]43C)[C@@H]1C[C@@H](O)[C@@H]2O [16α‐OH TEST] |  |  |  |  |  |  | 2.5 | 
4 | C[C@]12CCC(=O)C=C1CC[C@@H]1[C@@H]2CC[C@]2(C)C(=O)CC[C@@H]12 [Androstenedione] | 314.5 ± 55.3 | 371.6 ± 7.2 | 560.7 ± 6.6 | 548.7 ± 188.7 pmol/min/mg | 429.9 ± 30.9 pmol/min/mg | 457.0 ± 60.4 pmol/min/mg |  | 
5 | Cc1ncc2n1-c1ccc(Cl)cc1C(c1ccccc1F)=NC2 [Midazolam] |  |  |  |  |  |  |  | Main route of elimination (CYP vs UGT cofactors) ([4]; commercial Han Wistar microsomes, individual cofactors): CYP mediated metabolism; microsomal CLint at 1 μM ([4]; CYP cofactors, CYP cofactors only): 18.2 µL/min/mg; microsomal CLint at 1 μM ([4]; Combined cofactors, combined CYP and UGT cofactors): 12.3 µL/min/mg; microsomal CLint at 1 μM ([4]; UGT cofactors, UGT cofactors only): 2.8 µL/min/mg; fuinc [5]: 0.72; CL int,u in commercially available Sprague-Dawley microsomes [6]: 8.3 µL/min/mg; CL int,u,gut, Combined in-house pools ([7]; mean of pool 1 and pool 2 CL int,u and scaling factors): 6.12 L/h; CL int,u,gut, Pool 1 Mean ([7]; pool 1, pool specific scaling factors, threshold 0.01 l/h): 4.13 L/h; CL int,u,gut, Pool 2 Mean ([7]; pool 2, pool specific scaling factors, threshold 0.01 l/h): 7.36 L/h; microsomal CLint at 1 μM ([8]; Pool 1, pool 1, 1 mg/ml, CYP and UGT cofactors): 22 µL/min/mg; microsomal CLint at 1 μM ([8]; Pool 2, pool 2, cell marked with footnotes a and b (1 mg/ml and 0.5 mg/ml)): 18.2 µL/min/mg
